Reference: the NIST ThermoML archive (doi:10.1016/j.jct.2016.02.009)
± gives the expanded uncertainty stated by the source.

Experiment: Molar enthalpy of transition or fusion
Settings: Crystal 1; Adiabatic calorimetry

Compound | Molar enthalpy of transition or fusion
CCCCCCCCCCCCCCCCn1cc[n+](C)c1.O=S(=O)([N-]S(=O)(=O)C(F)(F)F)C(F)(F)F | 12.26 ± 0.0574 kcal/mol
CCCCCCCCCCn1cc[n+](C)c1.O=S(=O)([N-]S(=O)(=O)C(F)(F)F)C(F)(F)F | 6.852 ± 0.0311 kcal/mol
CCCCCCCCCCCCCCn1cc[n+](C)c1.O=S(=O)([N-]S(=O)(=O)C(F)(F)F)C(F)(F)F | 10.8 ± 0.0239 kcal/mol
